From article PMC12339328, “Therapeutic effect and mechanism of gigantol on hyperuricemia” (Frontiers in Endocrinology, 2025)
“And” between values parts separate entries of the source, which are not always exact repeats. Equal values may be shown once. “Also recorded” adds a separate entry of the source. Read-outs that look alike come from different tables or passages of the source.

How the values were obtained:
OAT1 = OAT1 protein expression in HK-2 cells (Western blot); details: for OAT1 / β (reference protein) ratio / OAT1 protein expression, band value: HK-2, replicates 1-3
Caspase-1 = Caspase-1 protein expression in HK-2 cells (Western blot); details: for CASPASE / β (reference protein) ratio / CASPASE protein expression, band value: HK-2, replicates 1-3
TNF-α = TNF-α level in serum and kidney of HUA mice (ELISA); type: in vivo; details: HUA mice treated with gigantol; vs model group; p < 0.01
Procedure: (§1) Blood obtained from mice in each group was centrifuged at 3,000 r/min for 15 min in a low-temperature high-speed centrifuge. Then, the serum was separated, and the levels of UA, CRE, and BUN in the serum were measured by the kits. The levels of TNF-α, IL-1β, IL-6, and NLRP3 in serum were detected by ELISA kits. Liver and kidney tissues were homogenized by adding ice-cold saline, and homogenates were centrifuged at 12,000 r/min for 10 min. XOD activity in the supernatant of the liver tissues was measured, and the levels of TNF-α, IL-1β, IL-6, and NLRP3 in the supernatant of the kidney tissues were measures by ELISA kits.

XOD = details: for xod / β (reference protein) ratio / xod protein expression, band value: AML12, replicates 1-3; for XOD protein expression in AML12 cells: HUA cell model, gigantol 25, 50, 100 µmol/L, vs model group, p < 0.001
OAT3 = OAT3 protein expression in kidney of HUA mice (Western blot); details: vs model group
NLRP3 [1] = test: NLRP3 content in serum and kidney of HUA mice (ELISA); type: in vivo; details: gigantol low, medium, high dose intragastric, vs model group
Procedure: as §1

NLRP3 [2] = test: NLRP3 protein expression in HK-2 cells (Western blot); details: for NLRP3 / β (reference protein) ratio / NLRP3 protein expression, band value: HK-2, replicates 1-3; for NLRP3 protein level in HK-2 cells: HUA cell model
IL-1β = IL-1β content in HK-2 HUA cell model (ELISA); type: cell-based, human; details: only the high-dose group showing a downward trend (p < 0.01)
Procedure: HK-2 cells were treated as described above. The supernatant of the medium was collected, and the levels of proinflammatory cytokines (TNF-α, IL-6, and IL-1β) and the NLRP3 inflammasome component in the supernatant were detected using commercially available ELISA kits according to the manufacturers’ protocols.

## 5-[2-(3-hydroxy-5-methoxyphenyl) ethyl]-2-methoxyphenol [gigantol]
OAT1; 中 = gigantol 50 µmol/L
  OAT1 / β (reference protein) ratio: 1.086 and 1.108 and 1.097
  OAT1 protein expression, band value: 188.76 and 205.851 and 208.271
OAT1; 低 = gigantol 25 µmol/L
  OAT1 / β (reference protein) ratio: 1.029 and 1.058 and 0.975
  OAT1 protein expression, band value: 170.32 and 198.69 and 175.271
OAT1; 高 = gigantol 100 µmol/L
  OAT1 / β (reference protein) ratio: 1.06 and 1.0745 and 1.075
  OAT1 protein expression, band value: 197.371 and 210.308 and 209.271
OAT1; HUA cell model, 50 and 100 µmol/L, vs model group
  OAT1 protein level in HK-2 cells: significantly increased
OAT1; HUA cell model, gigantol 25, 50, 100 µmol/L, dose-dependent
  OAT1 protein expression in HK-2 cells: increase
Caspase-1; 中 = gigantol 50 µmol/L
  CASPASE / β (reference protein) ratio: 0.976 and 0.8978 and 0.9502
  CASPASE protein expression, band value: 169.696 and 166.728 and 180.371
Caspase-1; 低 = gigantol 25 µmol/L
  CASPASE / β (reference protein) ratio: 0.8128 and 1.007 and 1.064
  CASPASE protein expression, band value: 134.57 and 189.238 and 191.281
Caspase-1; 高 = gigantol 100 µmol/L
  CASPASE / β (reference protein) ratio: 0.7864 and 0.8188 and 0.8437
  CASPASE protein expression, band value: 146.411 and 160.261 and 164.281
Caspase-1; HUA cell model, gigantol 25, 50, 100 µmol/L, vs model group
  Caspase-1 protein level in HK-2 cells: significantly reduced; also recorded: decreased significantly
TNF-α
  renal TNF-α level: significantly lower
  serum TNF-α level: significantly lower
XOD; 中 = gigantol 50 µmol/L
  xod / β (reference protein) ratio: 1.517 and 1.501 and 1.526
  xod protein expression, band value: 128.129 and 199.117 and 168.261
XOD; 低 = gigantol 25 µmol/L
  xod / β (reference protein) ratio: 1.791 and 1.55 and 1.796
  xod protein expression, band value: 141.242 and 241.421 and 177.271
XOD; 高 = gigantol 100 µmol/L
  xod / β (reference protein) ratio: 1.329 and 1.446 and 1.393
  xod protein expression, band value: 108.633 and 187.088 and 176.298
XOD
  XOD protein expression in AML12 cells: significantly decreased
XOD; listed as Gigantol
  XOD protein expression in AML12 cells: downregulated
XOD; listed as gigatol
  XOD protein expression in AML12 cells: significantly reduced in a dose-dependent manner
OAT3; gigantol low-dose group (5 mg/kg)
  OAT3 protein expression in kidney: not in the low-dose group
OAT3; gigantol medium-dose and high-dose groups (10, 20 mg/kg), p < 0.05
  OAT3 protein expression in kidney: increased
NLRP3 [1]
  NLRP3 level in kidney: decreased
  NLRP3 level in serum: decreased
NLRP3 [2]; 中 = gigantol 50 µmol/L
  NLRP3 / β (reference protein) ratio: 0.7212 and 0.9246 and 0.7381
  NLRP3 protein expression, band value: 125.385 and 171.712 and 140.12
NLRP3 [2]; 低 = gigantol 25 µmol/L
  NLRP3 / β (reference protein) ratio: 0.7726 and 0.9621 and 1.043
  NLRP3 protein expression, band value: 127.912 and 180.721 and 187.495
NLRP3 [2]; 高 = gigantol 100 µmol/L
  NLRP3 / β (reference protein) ratio: 0.5752 and 0.7261 and 0.6462
  NLRP3 protein expression, band value: 107.093 and 142.123 and 125.837
NLRP3 [2]; 25 μmol/L gigantol, vs model group
  NLRP3 protein level in HK-2 cells: moderately reduced
NLRP3 [2]; 50 and 100 µmol/L gigantol, vs model group
  NLRP3 protein level in HK-2 cells: significantly reduced
NLRP3 [2]; gigantol intervention, especially high-dose group (p < 0.001), vs model
  NLRP3 protein level in HK-2 cells: decreased significantly
IL-1β
  inhibitory effect on IL-1β in HK-2 cells: relatively weak
